Laboratory results: the supplement of paper PMC10307832

Experiments:
Assay in all cases: relative viability (nuclei count vs DMSO), 5 days (fraction); higher = more cells survive
[1] = compound: C=CC(=O)N1CCC[C@@H](n2nc(-c3ccc(Oc4ccccc4)cc3)c3c(N)ncnc32)C1 [Ibrutinib] + COc1cccc2cc(-c3nc([C@H]4CC[C@H](C(=O)O)CC4)n4ncnc(N)c34)[nH]c12 [OSI-027] (partner 0.5 µM)
How it was run: (§1)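 Cells from lung cancer lines were seeded into 1536-well plates and, one day later, dosed by pin tool. Treatments were either a single drug or a fixed dose of an anchor drug with five library-drug doses (not always all listed) in √10 steps. After 5 days, nuclei were stained in a one-step fixation (final 0.05% Triton X-100, 1% formaldehyde, 1 ug/ml Hoechst) and counted on 4× images, and relative viability is the treated-to-vehicle nuclei ratio, as the median of duplicate plates.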

[2] = compound: C=CC(=O)Nc1cc(-n2c(=O)ccc3cnc4ccc(-c5ccc(NS(C)(=O)=O)cc5)cc4c32)ccc1C [BMX-IN-1] + Nc1ncn([C@H]2C[C@H](O)[C@@H](CO)O2)c(=O)n1 [Decitabine] (partner 2 µM)
How it was run: as §1

[3] = compound: C=CCc1cccc(/C=N/NC(=O)CN2CCN(Cc3ccccc3)CC2)c1O [PAC-1] + COc1cc2c(Oc3ccc(NC(=O)C4(C(=O)Nc5ccc(F)cc5)CC4)cc3F)ccnc2cc1OCCCN1CCOCC1 [Foretinib] (partner 0.25 µM)
How it was run: as §1

[4] = compound: C=CC(=O)N1CCC[C@@H](n2nc(-c3ccc(Oc4ccccc4)cc3)c3c(N)ncnc32)C1 [Ibrutinib] + Nc1ncn([C@H]2C[C@H](O)[C@@H](CO)O2)c(=O)n1 [Decitabine] (partner 2 µM)
How it was run: as §1

Cell Line	relative viability ([1]; first compound 0.005 µM)	relative viability ([1]; first compound 0.01581 µM)	relative viability ([1]; first compound 0.05 µM)	relative viability ([1]; first compound 0.1581 µM)	relative viability ([1]; first compound 0.5 µM)	relative viability ([2]; first compound 0.02 µM)	relative viability ([2]; first compound 0.2 µM)	relative viability ([2]; first compound 0.6325 µM)	relative viability ([2]; first compound 2 µM)	relative viability ([3]; first compound 0.02 µM)	relative viability ([3]; first compound 0.06325 µM)	relative viability ([3]; first compound 0.2 µM)	relative viability ([3]; first compound 2 µM)	relative viability ([4]; first compound 0.005 µM)	relative viability ([4]; first compound 0.01581 µM)	relative viability ([4]; first compound 0.05 µM)	relative viability ([4]; first compound 0.1581 µM)	relative viability ([4]; first compound 0.5 µM)
NCI-H1944	0.331	0.33	0.329	0.339	0.331	0.459	0.402	0.481	0.426	0.882	0.802	0.783	0.891	0.426	0.363	0.413	0.433	0.372
NCI-H460	0.731	0.53	0.626	0.566	0.823	0.568	0.657	0.478	0.428	1.08	0.915	0.954	0.959	0.541	0.419	0.503	0.497	0.551
NCI-H358	0.486		0.378	0.488	0.211	0.181	0.2	0.239	0.214	0.622	0.573	0.645	0.574	0.176	0.204		0.232	0.136
NCI-H596		0.777	0.625	0.675	0.526	1.04	1.14	0.945	1.2	0.767	0.832	0.876	0.894	1.12	1.1	1.88	0.936	0.942
NCI-H322M	0.482	0.564	0.513	0.507	0.488	0.604	0.699	0.722	0.661	0.859	0.948	0.986	0.887	0.662	0.637	0.664	0.634	0.505
H3255	0.459	0.547	0.623	0.654	0.406	0.784	0.631	0.812	0.694	0.925	0.814	0.883	0.89	0.575	0.532		0.636	0.261
COR-L23	0.644	0.731	0.762	0.875	0.882	0.467	0.45	0.484	0.438	1.01	1.02	0.902	0.951	0.428	0.433	0.473	0.461	0.525
NCI-H2126		0.59	0.537	0.537	0.632	0.522	0.515	0.59	0.601	1.28	1.25	1.15	1.12	0.537	0.565	0.613	0.598	0.502
NCI-H1993	0.574	0.566	0.584	0.552	0.692	0.678	0.525	0.53	0.631	0.718	0.746	0.608	0.826	0.571	0.637	0.579	0.554	0.441
NCI-H1915	0.557	0.619	0.606	0.482	0.682	0.282	0.272	0.284	0.273	1.09	1.08	1.02	1.08	0.269	0.272	0.275	0.272	0.255
NCI-H727	0.506	0.591	0.674		0.577	0.668	0.917	0.777	1.01	0.811	1.02	0.937	0.881	0.617	1.04	0.806	0.506	0.804
NCI-H1734	0.448	0.528	0.611	0.665	0.564	0.534	0.568	0.522	0.831	0.759	0.779	0.762	0.759	0.548	0.511	0.541	0.455	0.47
A-427	0.36	0.431	0.512	0.369	0.499	0.544	0.554	0.559	0.551	1.12	0.946	1.09	1.08	0.59	0.574	0.576		0.549
NCI-H2170	0.48	0.587	0.459	0.822	0.272	0.454	0.499	0.469	0.495	1.08	0.961	0.969	1.01	0.438	0.47	0.389	0.457	0.173
NCI-H1437	0.718	0.846	0.941	0.913	0.878	0.672	0.603	0.623	0.575	1.19	1.23	1.3	1.1	0.59	0.559	0.507	0.609	0.53
PC-3 [JPC-3]	0.635	0.7	0.619	0.84	0.584	0.84	0.754	0.816	0.885	1.06	1.02	0.996	0.994	0.707	0.762	0.707	0.837	0.542
NCI-H2342	0.462	0.566	0.494	0.532	0.505	0.698	0.751	0.748	0.742	1.15	1.04	1.03	1.05	0.739	0.64	0.693	0.708	0.563
201T	0.758	0.665	0.882	0.608	0.762	0.819	0.847	0.864	0.918	0.998	1.22	1.15	1.11	0.827	0.842	0.881	0.83	0.799
